Assays:
FIBRINOGEN [1] = molecular target: T1, FIBRINOGEN (Homo sapiens, UniProt P02671+P02675+P02679); assay: Coagulation factor assay (Biggs): fibrinogen; format: biochemical; conditions: mean of two experiments; control 205
T1 construct: from tissue; host or cells: human plasma
T1 sequence (P02671 20-629 limits assumed): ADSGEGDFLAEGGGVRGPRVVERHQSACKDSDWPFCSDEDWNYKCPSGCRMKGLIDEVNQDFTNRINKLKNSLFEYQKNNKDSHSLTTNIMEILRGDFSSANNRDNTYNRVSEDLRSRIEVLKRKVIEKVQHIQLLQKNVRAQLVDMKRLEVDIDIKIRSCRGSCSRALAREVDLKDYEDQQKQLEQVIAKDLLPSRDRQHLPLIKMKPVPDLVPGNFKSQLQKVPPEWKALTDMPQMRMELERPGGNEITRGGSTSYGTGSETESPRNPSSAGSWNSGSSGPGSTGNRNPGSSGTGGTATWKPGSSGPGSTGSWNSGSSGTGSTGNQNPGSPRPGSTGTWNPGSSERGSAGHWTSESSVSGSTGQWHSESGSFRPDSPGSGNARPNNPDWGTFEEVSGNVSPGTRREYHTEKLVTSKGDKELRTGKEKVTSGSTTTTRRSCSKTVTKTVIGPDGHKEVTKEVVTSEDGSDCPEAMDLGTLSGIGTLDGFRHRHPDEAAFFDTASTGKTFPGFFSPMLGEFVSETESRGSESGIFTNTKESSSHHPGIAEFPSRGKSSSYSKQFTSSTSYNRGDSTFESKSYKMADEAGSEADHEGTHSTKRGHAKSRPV
T1 sequence (P02675 31-491): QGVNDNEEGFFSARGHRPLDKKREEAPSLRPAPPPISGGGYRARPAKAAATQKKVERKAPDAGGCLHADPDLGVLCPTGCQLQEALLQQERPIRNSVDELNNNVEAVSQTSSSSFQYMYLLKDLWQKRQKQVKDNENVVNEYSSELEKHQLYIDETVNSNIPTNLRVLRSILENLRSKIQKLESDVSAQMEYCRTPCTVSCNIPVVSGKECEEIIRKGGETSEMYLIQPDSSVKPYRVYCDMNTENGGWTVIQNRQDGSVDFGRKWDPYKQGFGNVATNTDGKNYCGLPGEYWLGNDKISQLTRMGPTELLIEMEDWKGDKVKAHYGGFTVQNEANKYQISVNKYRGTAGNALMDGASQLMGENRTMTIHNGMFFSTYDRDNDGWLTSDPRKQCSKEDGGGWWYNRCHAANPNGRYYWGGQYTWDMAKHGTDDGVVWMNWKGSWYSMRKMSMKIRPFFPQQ
T1 sequence (P02679 27-453): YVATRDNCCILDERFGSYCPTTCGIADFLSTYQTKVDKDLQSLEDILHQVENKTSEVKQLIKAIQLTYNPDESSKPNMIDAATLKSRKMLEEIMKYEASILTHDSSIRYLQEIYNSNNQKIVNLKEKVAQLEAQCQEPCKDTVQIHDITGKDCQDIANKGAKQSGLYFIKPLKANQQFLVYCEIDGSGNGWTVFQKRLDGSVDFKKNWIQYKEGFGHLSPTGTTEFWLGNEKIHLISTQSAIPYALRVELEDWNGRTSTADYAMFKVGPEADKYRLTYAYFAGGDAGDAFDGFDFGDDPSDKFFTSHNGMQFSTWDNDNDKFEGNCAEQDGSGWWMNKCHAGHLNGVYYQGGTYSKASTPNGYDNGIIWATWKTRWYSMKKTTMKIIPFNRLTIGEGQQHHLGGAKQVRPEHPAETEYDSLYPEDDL
Description: (§1) The effect of U.S.P. grade sodium bisulfite on blood coagulation factors is evaluated by standard procedures (Biggs) and the results are shown in Table III below.
(§2) References for PT, PTT, and assays of all the coagulation factors can be found in a standard textbook, entitled "Human Blood Coagulation, Haemostasis and Thrombosis", edited by Rosemary Biggs, published by Blackwell Scientific Publications, Oxford, England (2nd edition), pages 670-705, 1976.

human plasma [2] = format: biochemical; conditions: for PT (effect in words): in vitro, 0.5 mg/ml
human plasma [3] = format: biochemical; conditions: for PTT (effect in words): in vitro, 0.5 mg/ml
[4] = test system: thrombus formation in the jugular vein; assay: I 125 fibrinogen technique, damaged jugular vein (venous thrombosis), continuous infusion; format: in vivo, rabbits; conditions: continuous infusion for five hours
Description: The anti venous thrombotic effect of sodium bisulfite is evaluated in rabbits by using I ^125 fibrinogen technique as described in an article in "Archives of Surgery" Vol. 104, pg. 152 (1972).
The rabbit was continuously infused with aqueous sodium bisulfite solution at the rate of […]. (5.154 gram per hour) (animal body weight 2.3 kg) for a time of five hours. After 5 hours, the animal was sacrificed and the radioactive fibrinogen accumulated in the damaged jugular vein was determined. The radioactivity on the contra-lateral (undamaged) jugular vein was also determined to serve as a control. Concurrently, another rabbit had experienced the same procedure but received only a standard sodium chloride solution as a control. The rabbit from the normal saline solution has seven times as much radioactivity as his counterpart infused with sodium bisulfite.
Two jugular veins on a normal, healthy rabbit are exposed and one of the veins is systematically damaged by clamping in two longitudinally spaced places. The rabbit is then continuously infused with aqueous sodium formaldehyde bisulfite at the rate of […] (5.154 gram per hour) (animal body weight 2.3 kg). The rabbit is then injected with fibrinogen labeled with I^125. After 5 hours, the damaged jugular vein is evaluated for radioacive count with a Geiger counter.
This iodine 125 evaluation technique is described by Kakkar in Archieves of Surgery, Vol. 104, pg. 152 (1972) and by Kelton, J.G. et al, Journal of Clinical Investigation, Vol. 62, pgs. 892-895, (1978). […] Other rabbits, similarly evaluated, died, apparently because of overdose by the infustion technique.

platelet rich plasma = assay: Platelet aggregation in platelet rich plasma, ADP stimulus (Example 25); format: cell-based; conditions: plasma first treated with the compound
Excerpt: Plasma was centrifuged at 1000 r.p.m. (200 g) to prepare a platelet rich plasma. Using adosine diphosphate (ADP) as a stimulous, rapid aggregation of platelets in the plasma was efected. On the other hand, when such plasma is first treatd with (a) tetramethyl ammonium sulfite, (b) tetramethyl ammonium bisulfite, and then (c) tetrabutyl

F IX = molecular target: T2, F IX (Homo sapiens, UniProt P00740); assay: Coagulation factor assay (Biggs): Factor IX; format: biochemical; conditions: single experiment; control 50
T2 construct: from tissue; host or cells: human plasma
T2 sequence (P00740 47-461): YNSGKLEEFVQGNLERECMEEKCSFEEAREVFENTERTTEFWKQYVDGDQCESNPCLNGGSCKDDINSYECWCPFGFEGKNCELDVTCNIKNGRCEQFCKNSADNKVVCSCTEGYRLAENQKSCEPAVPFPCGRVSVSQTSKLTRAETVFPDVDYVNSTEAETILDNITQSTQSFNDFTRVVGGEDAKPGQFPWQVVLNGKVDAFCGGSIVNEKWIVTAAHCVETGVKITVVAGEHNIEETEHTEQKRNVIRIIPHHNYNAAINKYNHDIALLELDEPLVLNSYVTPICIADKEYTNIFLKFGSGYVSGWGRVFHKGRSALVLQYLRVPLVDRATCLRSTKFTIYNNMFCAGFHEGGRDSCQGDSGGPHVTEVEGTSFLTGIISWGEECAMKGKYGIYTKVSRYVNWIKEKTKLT
Description: as §1, §2

FIBRINOGEN [5] = molecular target: T1, FIBRINOGEN; assay: Coagulation factor assay (Biggs): fibrinogen; format: biochemical; conditions: mean of 2 experiments; control 205
rabbit plasma = assay: Blood coagulation tests (PT, PTT, coagulation factors) in vitro; format: biochemical; conditions: rabbit plasma in vitro, 0.5 mg/ml
Excerpt: (§3) The alkali metalbisulfites, sodium and potassium, and ammonium bisulfite are found to prolong PT and PTT in a dose-related fashion.
The Solution I is found to prolong PT and PTT in a dose related fashion. […] The agent is active in inhibiting various coagulation factors, including factors VII, IX, X, XI, and XII.

rat plasma = assay: as above; format: biochemical; conditions: rat plasma in vitro, 0.5 mg/ml
Excerpt: as §3

CCN(CC)CC.O=S(O)O [TRIETHYL AMINE SULFITE, triethyl amine sulfite]
Fibrinogen (%) (FIBRINOGEN [1]): 170%
MEAN LSD (PT) (human plasma [2]): 16.9 ± 1.1 s
PT(Sec) […]. 1 (human plasma [2]): 17.0 s
PT(Sec) […]. 2 (human plasma [2]): 18.5 s
PT(Sec) […]. 3 (human plasma [2]): 15.4 s
PT(Sec) […]. 4 (human plasma [2]): 16.6 s
PT(Sec) […].5 (human plasma [2]): 16.8 s
MEAN LSD (PTT) (human plasma [3]): 60.6 ± 4.1 s
PTT(Sec) […]. 1 (human plasma [3]): 59.2 s
PTT(Sec) […]. 2 (human plasma [3]): 65.1 s
PTT(Sec) […]. 3 (human plasma [3]): 54.9 s
PTT(Sec) […]. 4 (human plasma [3]): 59.0 s
PTT(Sec) […].5 (human plasma [3]): 64.0 s
thrombus formation in the jugular vein (conclusion in words) [4]: definite positive antithrombotic effect

C[N+](C)(C)C [Tetramethyl-ammonium sulfite]
platelet aggregation, adosine diphosphate (ADP) as a stimulous (platelet rich plasma): inhibited
Factor IX (%) (F IX): 20%
Fibrinogen (%) (FIBRINOGEN [5]): 175%

ammonium bisulfite
PT and PTT (effect in words) (rabbit plasma): significantly prolong
PT and PTT (effect in words) (rat plasma): significantly prolong
PT (effect in words) (human plasma [2]): significantly prolong
PTT (effect in words) (human plasma [3]): significantly prolong

potassium bisulfite
PT and PTT (effect in words) (rabbit plasma): significantly prolong
PT and PTT (effect in words) (rat plasma): significantly prolong
PT (effect in words) (human plasma [2]): significantly prolong
PTT (effect in words) (human plasma [3]): significantly prolong
